Drawing on patent US8877707B2, “Inhibitors of HCV NS5A” (Presidio Pharmaceuticals, Inc., priority 2010, dated 2014), this text covers EC50 for 40 compounds.

In this assay the test system is HCV genotype 1b replicon in Huh 7 cells. Briefly: HCV replicon assay (1b_Huh-Luc/Neo-ET cell line, luciferase readout). The format is cell-based. The settings on record: Hepatitis C virus, Huh-7; HCV 1b replicon; read-out: Inhibition of HCV genotype 1b. An outline of the steps: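 Replicon level was read as luciferase signal after 72 h compound exposure, triplicate wells, starting the day after cells were plated. Cell line: 1b_Huh-Luc/Neo-ET. Values normalised to control as percent, and EC50 fitted with a variable-slope sigmoid; determinations repeated.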
In general terms: Replicon systems follow genome replication, usually without infectious particles.

On to `CC[C@H](C)[C@H](NC(=O)OC)C(=O)N1CCC[C@H]1c1ncc(-c2ccc3cc(-c4ccc5nc([C@@H]6CCCN6C(=O)[C@@H](NC(=O)OC)[C@@H](C)OC)[nH]c5c4)ccc3c2)[nH]1` [compound 526], for which the EC50 is < 1 nM.

Take `COC(=O)N[C@H](C(=O)N1CCC[C@H]1c1ncc(-c2ccc3cc(-c4cc5[nH]c([C@@H]6CCCN6C(=O)[C@@H](NC(=O)OC)C(C)C)nc5cn4)ccc3c2)[nH]1)C(C)C` [compound 527]: the EC50 was < 1 nM.

On to `COC(=O)N[C@H](C(=O)N1CCC[C@H]1c1nc2ccc(-c3ccc4cc(-c5cnc([C@@H]6CCCN6C(=O)[C@@H](NC(=O)OC)[C@@H](C)OC)[nH]5)ccc4c3)cc2[nH]1)C1CCCC1` [compound 528], for which the EC50 was < 1 nM.

For `COC(=O)N[C@H](C(=O)N1CCC[C@H]1c1nc2ccc(-c3ccc4cc(-c5cnc([C@@H]6CCCN6C(=O)[C@@H](NC(=O)OC)[C@@H](C)OC)[nH]5)ccc4c3)cc2[nH]1)C1CCCCC1` [compound 529], the EC50 is < 1 nM.

Take `COC(=O)N[C@H](C(=O)N1CCC[C@H]1c1ncc(-c2ccc3cc(-c4ccc5nc([C@@H]6CCCN6C(=O)[C@@H](NC(=O)OC)[C@@H](C)OC)[nH]c5n4)ccc3c2)[nH]1)[C@@H](C)OC` [compound 530]: the EC50 is < 1 nM.

As for `COC(=O)N[C@H](C(=O)N1CCC[C@H]1c1ncc(-c2ccc3cc(-c4ccc5nc([C@@H]6CCCN6C(=O)[C@@H](NC(=O)OC)C6CCOCC6)[nH]c5c4)nnc3c2)[nH]1)C1CCOCC1` [compound 531], the EC50 was < 1 nM.

In the case of `COC(=O)N[C@H](C(=O)N1CCC[C@H]1c1nc2ccc(-c3ccc4cc(-c5cnc([C@@H]6CCCN6C(=O)[C@@H](NC(=O)OC)[C@@H](C)OC)[nH]5)ccc4c3)nc2[nH]1)C(C)C` [compound 532], the EC50 was < 1 nM.

Take `COC(=O)N[C@H](C(=O)N1CCC[C@H]1c1nc2ccc(-c3ccc4cc(-c5cnc([C@@H]6CCCN6C(=O)[C@@H](NC(=O)OC)[C@@H](C)OC)[nH]5)ccc4c3)nc2[nH]1)C1CCCC1` [compound 533]: the EC50 is < 1 nM.

On to `CC[C@H](C)[C@H](NC(=O)OC)C(=O)N1CCC[C@H]1c1nc2ccc(-c3ccc4cc(-c5cnc([C@@H]6CCCN6C(=O)[C@@H](NC(=O)OC)[C@@H](C)OC)[nH]5)ccc4c3)nc2[nH]1` [compound 534], for which the EC50 is < 1 nM.

With `COC(=O)N[C@H](C(=O)N1CCC[C@H]1c1ncc(-c2ccc3oc(-c4ccc(-c5cnc([C@@H]6CCCN6C(=O)[C@H](NC(=O)OC(C)(C)C)c6ccccc6)[nH]5)cc4)nc3c2)[nH]1)C(C)C` [compound 535], the EC50 was < 1 nM.

`COC(=O)N[C@H](C(=O)N1CCC[C@H]1c1ncc(-c2ccc(-c3nc4cc(-c5cnc([C@@H]6CCCN6C(=O)[C@H](NC(=O)OC)c6ccccc6)[nH]5)ccc4s3)cc2)[nH]1)C(C)C` [compound 536]: the EC50 is < 1 nM.

Consider `COC(=O)N[C@H](C(=O)N1CCC[C@H]1c1nc2ccc(-c3ccc4cc(-c5ccc6nc([C@@H]7CCCN7C(=O)[C@@H](NC(=O)OC)C(C)C)[nH]c6c5)nnc4c3)cc2[nH]1)C(C)C` [compound 537], for which the EC50 was < 1 nM.

Regarding `COC(=O)N[C@H](C(=O)N1CCC[C@H]1c1nc2ccc(-c3ccc4cc(-c5ccc6nc([C@@H]7CCCN7C(=O)[C@@H](NC(=O)OC)[C@@H](C)OC)[nH]c6c5)nnc4c3)cc2[nH]1)[C@@H](C)OC` [compound 538], the EC50 was < 1 nM.

`COC(=O)N[C@H](C(=O)N1CCC[C@H]1c1nc2c([nH]1)-c1ccc(-c3ccc4cc(-c5cnc([C@@H]6CCCN6C(=O)[C@H](NC(=O)OC)c6ccccc6)[nH]5)ccc4n3)cc1CCC2)C(C)C` [compound 539]: the EC50 is < 1 nM.

Turning to `COC(=O)N[C@H](C(=O)N1CCC[C@H]1c1nc2c([nH]1)-c1ccc(-c3ccc4cc(-c5cnc([C@@H]6CCCN6C(=O)[C@H](NC(=O)OC6CCOCC6)c6ccccc6)[nH]5)ccc4n3)cc1CCC2)C(C)C` [compound 540], the EC50 was < 1 nM.

On to `COC(=O)N[C@H](C(=O)N1CCC[C@H]1C(=O)Nc1ccc(-c2ccc3cc(-c4cnc([C@@H]5CCCN5C(=O)[C@@H](NC(=O)OC)C(C)C)[nH]4)ccc3n2)cc1)C(C)C` [compound 541], for which the EC50 lay within 1 to 9.9 nM.

Turning to `COC(=O)N[C@H](C(=O)N1CCC[C@H]1C(=O)Nc1ccc(-c2ccc3cc(-c4cnc([C@@H]5CCCN5C(=O)[C@@H](NC(=O)OC)C5CCOCC5)[nH]4)ccc3n2)cc1)C1CCOCC1` [compound 542], the EC50 lay within 1 to 9.9 nM.

As for `COC(=O)N[C@@H](C(=O)N1CCC[C@H]1C(=O)Nc1ccc(-c2ccc3cc(-c4cnc([C@@H]5CCCN5C(=O)[C@H](NC(=O)OC)c5ccccc5)[nH]4)ccc3n2)cc1)c1ccccc1` [compound 543], the EC50 is < 1 nM.

For the compound `COC(=O)N[C@H](C(=O)N1CCC[C@H]1CNC(=O)c1ccc(-c2ccc3cc(-c4cnc([C@@H]5CCCN5C(=O)[C@@H](NC(=O)OC)C(C)C)[nH]4)ccc3n2)cc1)C(C)C` [compound 544], the EC50 was < 1 nM.

As for `COC(=O)N[C@@H](C(=O)N1CCC[C@H]1CNC(=O)c1ccc(-c2ccc3cc(-c4cnc([C@@H]5CCCN5C(=O)[C@H](NC(=O)OC)c5ccccc5)[nH]4)ccc3n2)cc1)c1ccccc1` [compound 545], the EC50 was < 1 nM.

Regarding `COC(=O)N[C@H](C(=O)N1CCC[C@H]1C(=O)NCc1ccc(-c2ccc3cc(-c4cnc([C@@H]5CCCN5C(=O)[C@@H](NC(=O)OC)C(C)C)[nH]4)ccc3n2)cc1)C(C)C` [compound 546], the EC50 lay in the range of 10 to 999 nM.

`COC(=O)N[C@@H](C(=O)N1CCC[C@H]1C(=O)NCc1ccc(-c2ccc3cc(-c4cnc([C@@H]5CCCN5C(=O)[C@H](NC(=O)OC)c5ccccc5)[nH]4)ccc3n2)cc1)c1ccccc1` [compound 547]: the EC50 is < 1 nM.

For the compound `COC(=O)N[C@@H](C(=O)N1CCC[C@H]1CNC(=O)c1cnc2cc(-c3ccc4c(c3)CCc3nc([C@@H]5CCCN5C(=O)[C@H](NC(=O)OC)c5ccccc5)[nH]c3-4)ccc2c1)c1ccccc1` [compound 548], the EC50 was < 1 nM.

For `COC(=O)N[C@H](C(=O)N1CCC[C@H]1CNC(=O)c1cnc2cc(-c3ccc4c(c3)CCc3nc([C@@H]5CCCN5C(=O)[C@@H](NC(=O)OC)C(C)C)[nH]c3-4)ccc2c1)C(C)C` [compound 549], the EC50 was 1 to 9.9 nM.

Regarding `COC(=O)N[C@H](C(=O)N1CCC[C@H]1CNC(=O)c1cnc2cc(-c3ccc4c(ccc5nc([C@@H]6CCCN6C(=O)[C@@H](NC(=O)OC)C(C)C)[nH]c54)c3)ccc2c1)C(C)C` [compound 550], the EC50 was in the range of 1 to 9.9 nM.

Take `COC(=O)N[C@@H](C(=O)N1CCC[C@H]1CNC(=O)c1cnc2cc(-c3ccc4c(ccc5nc([C@@H]6CCCN6C(=O)[C@H](NC(=O)OC)c6ccccc6)[nH]c54)c3)ccc2c1)c1ccccc1` [compound 551]: the EC50 was < 1 nM.

With `COC(=O)N[C@H](C(=O)N1CCC[C@H]1CNC(=O)c1cnc2cc(-c3ccc(-c4cnc([C@@H]5CCCN5C(=O)[C@@H](NC(=O)OC)C(C)C)[nH]4)cc3)ccc2c1)C(C)C` [compound 552], the EC50 lay in the range of 1 to 9.9 nM.

Take `COC(=O)N[C@@H](C(=O)N1CCC[C@H]1CNC(=O)c1cnc2cc(-c3ccc(-c4cnc([C@@H]5CCCN5C(=O)[C@H](NC(=O)OC)c5ccccc5)[nH]4)cc3)ccc2c1)c1ccccc1` [compound 553]: the EC50 is < 1 nM.

Consider `COC(=O)N[C@H](C(=O)N1CCC[C@H]1CNC(=O)c1cnc2cc(-c3ccc4nc([C@@H]5CCCN5C(=O)[C@@H](NC(=O)OC)C(C)C)[nH]c4c3)ccc2c1)C(C)C` [compound 554], for which the EC50 lay within 1 to 9.9 nM.

`COC(=O)N[C@@H](C)C(=O)N1CCC[C@H]1C(=O)N[C@@H](C)c1ccc(-c2ccc3cc(-c4cnc([C@@H]5CCCN5C(=O)[C@H](C)NC(=O)OC)[nH]4)ccc3c2)cc1` [compound 556]: the EC50 was in the range of 10 to 999 nM.

Regarding `COC(=O)N[C@H](C(=O)N1CCC[C@H]1C(=O)N[C@@H](C)c1ccc(-c2ccc3cc(-c4cnc([C@@H]5CCCN5C(=O)[C@@H](NC(=O)OC)C(C)C)[nH]4)ccc3c2)cc1)C(C)C` [compound 557], the EC50 is < 1 nM.

As for `COC(=O)N[C@H](C(=O)N1CCC[C@H]1C(=O)N[C@@H](C)c1ccc(-c2ccc3cc(-c4cnc([C@@H]5CCCN5C(=O)[C@@H](NC(=O)OC)[C@@H](C)OC)[nH]4)ccc3c2)cc1)[C@@H](C)OC` [compound 558], the EC50 was < 1 nM.

Regarding `COC(=O)N[C@H](C(=O)N1CCC[C@H]1C(=O)N[C@@H](C)c1ccc(-c2ccc3cc(-c4cnc([C@@H]5CCCN5C(=O)[C@@H](NC(=O)OC)C5CCOCC5)[nH]4)ccc3c2)cc1)C1CCOCC1` [compound 559], the EC50 was < 1 nM.

As for `COC(=O)N[C@@H](C)C(=O)N1CCC[C@H]1C(=O)N[C@H](C)c1ccc(-c2ccc3cc(-c4cnc([C@@H]5CCCN5C(=O)[C@H](C)NC(=O)OC)[nH]4)ccc3c2)cc1` [compound 560], the EC50 was 10 to 999 nM.

For `COC(=O)N[C@H](C(=O)N1CCC[C@H]1C(=O)N[C@H](C)c1ccc(-c2ccc3cc(-c4cnc([C@@H]5CCCN5C(=O)[C@@H](NC(=O)OC)C(C)C)[nH]4)ccc3c2)cc1)C(C)C` [compound 561], the EC50 is 10 to 999 nM.

In the case of `COC(=O)N[C@H](C(=O)N1CCC[C@H]1C(=O)N[C@H](C)c1ccc(-c2ccc3cc(-c4cnc([C@@H]5CCCN5C(=O)[C@@H](NC(=O)OC)[C@@H](C)OC)[nH]4)ccc3c2)cc1)[C@@H](C)OC` [compound 562], the EC50 was 10 to 999 nM.

`COC(=O)N[C@H](C(=O)N1CCC[C@H]1C(=O)N[C@H](C)c1ccc(-c2ccc3cc(-c4cnc([C@@H]5CCCN5C(=O)[C@@H](NC(=O)OC)C5CCOCC5)[nH]4)ccc3c2)cc1)C1CCOCC1` [compound 563]: the EC50 fell in the range of 1 to 9.9 nM.

Take `COC(=O)N[C@@H](C)C(=O)N1CCC[C@H]1CNC(=O)c1ccc(-c2ccc3cc(-c4cnc([C@@H]5CCCN5C(=O)[C@H](C)NC(=O)OC)[nH]4)ccc3c2)cc1` [compound 564]: the EC50 was 10 to 999 nM.

As for `COC(=O)N[C@H](C(=O)N1CCC[C@H]1CNC(=O)c1ccc(-c2ccc3cc(-c4cnc([C@@H]5CCCN5C(=O)[C@@H](NC(=O)OC)C(C)C)[nH]4)ccc3c2)cc1)C(C)C` [compound 565], the EC50 was < 1 nM.

On to `COC(=O)N[C@@H](C)C(=O)N1CCC[C@H]1C(=O)NCc1ccc(-c2ccc3cc(-c4cnc([C@@H]5CCCN5C(=O)[C@H](C)NC(=O)OC)[nH]4)ccc3c2)cc1` [compound 566], for which the EC50 was in the range of 10 to 999 nM.
